Data set [1] is described as follows: In vivo pharmacokinetic parameters (clearance, half-life, AUC). Particulars: for clearance: read-out: In vivo Clearance rate.
For data set [2], the target named is T1, motor domain of human KSP (Eg 5, KNSL1) (Homo sapiens, UniProt P52732).
T1 construct: KSP motor protein (i.e., the KSP motor domain); made in house
T1 sequence (P52732 18-359 limits assumed): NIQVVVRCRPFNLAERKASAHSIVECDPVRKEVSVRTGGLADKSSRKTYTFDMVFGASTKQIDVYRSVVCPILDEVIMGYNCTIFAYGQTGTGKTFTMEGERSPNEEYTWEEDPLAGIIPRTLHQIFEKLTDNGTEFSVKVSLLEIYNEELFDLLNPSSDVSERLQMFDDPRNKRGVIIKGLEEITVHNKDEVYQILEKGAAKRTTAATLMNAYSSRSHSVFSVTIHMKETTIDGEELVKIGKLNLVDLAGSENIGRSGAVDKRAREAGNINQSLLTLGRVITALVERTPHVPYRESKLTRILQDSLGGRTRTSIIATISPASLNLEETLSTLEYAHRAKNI
Briefly: Assay for determining KSP activity (microtubule/KSP ATPase, Biomol Green). Type of data set: biochemical. The following applies: read-out: In vitro activity (IC-50 - nm). On the procedure: Purified microtubules obtained from bovine brain were purchased from Cytoskeleton Inc. (Denver, Colo., USA). The motor domain of human KSP (Eg 5, KNSL1) was cloned, expressed, and purified to greater than 95% homogeneity. Biomol Green™ was purchased from Affinity Research Products Ltd. (Matford Court, Exeter, Devon, United Kingdom). Microtubules and KSP motor protein (i.e., the KSP motor domain) were diluted in assay buffer (20 mM Tris-HCl (pH 7.5), 1 mM MgCl2, 10 mM DTT and 0.25 mg/mL BSA) to a final concentration of 35 μg/mL microtubules and 45 nM KSP. The microtubule/KSP mixture was then pre-incubated at 37° C. for 10 min to promote the binding of KSP to microtubules.
To each well of the testing plate (384-well plate) containing 1.25 μL of inhibitor or test compound in DMSO (or DMSO only, in the case of controls) were added 25 μL of ATP solution (ATP diluted to a concentration of 300 μM in assay buffer) and 25 μL of the above-described microtubule/KSP solution. The plates were incubated at RT for 1 hour. Following incubation, 65 μL of Biomol Green™ (a malachite green-based dye that detects the release of inorganic phosphate) was added to each well. The plates were incubated for an additional 5-10 minutes then the absorbance at 630 nm was determined using a Victor II plate reader. The amount of absorbance at 630 nm corresponded to the amount of KSP activity in the samples. The IC50 of each inhibitor or test compound was then determined based on the decrease in absorbance at 630 nm at each concentration, via nonlinear regression using either XLFit for Excel or Prism data analysis software by GraphPad Software Inc.

The test system of another data set is KB8.5. As to the kind of experiment: CellTiter-Glo proliferation, 72 hours. Type of data set: cell-based. Particulars: Homo sapiens; Epidermoid, KB8.5, 72 hours. (Cellular ATP, detected with luciferase, serves as a proxy for viable cell number.)
The next data set relates to KB3.1. Briefly: CellTiter-Glo proliferation, 72 hours. The data set is classed as cell-based. Particulars: Homo sapiens, KB 3-1; Epidermoid, KB3.1, 72 hours. An excerpt: (§1) Cell lines used were as follows: HCT-116 (National Cancer Institute's DCTF Tumor Repository, catalog #NCI-502568, Rockville, Md.), HCT-15 (National Cancer Institute's DCTF Tumor Repository, catalog#NCI-502711, Rockville, Md. available from American Type Tissue Collection, catalog #CLL-225), KB-3-1 (available from DSMZ, Deutsche Sammlung von Mikroorganismen und Zellkulturen GmbH (German Collection of Microorganisms and Cell Cultures—catalog number ACC 158), KB-V1 (available from DSMZ—catalog number ACC 149), AGS (available from American Type Culture Collection, Manassas Va., catalog number CRL-1739™), N87 (available from American Type Culture Collection, Manassas Va., catalog number CRL-5822), Hel92.1.7 (available from American Type Culture Collection, Manassas Va., catalog number TIB 180), K562 (available from American Type Culture Collection, Manassas Va., catalog number CRL-243™), MV4; 11 (American Tissue Culture Collection, Manassas Va., catalog number CRL-9591) and U937 (available from American Type Culture Collection, Manassas Va., catalog number CRL-1593.2).
(§2) Cells were plated in 96-well plates at densities of about 500 cells per well of a 96-well plate and allowed to grow for 24 hours. The cells were then treated with various concentrations of compounds for 72 hours. Then, 100 μl of CellTiter-Glo® reagent was added (Promega Corporation). CellTiter-Glo® is used in a homogeneous method of determining the number of viable cells using the single CellTiter-Glo® reagent to detect ATP (U.S. Pat. Nos. 6,602,677 and 7,241,584) (see Promega product catalog #G7570). Following the addition of the CellTiter-Glo® reagent, the cells were incubated in the dark for 30 minutes. The amount of luminescence was determined for each well using a Wallac Trilux plate reader, which correlates with the number of cells per well. The number of viable cells in the wells that receive only DMSO (0.5%) served as an indication of 0% inhibition, while wells without cells served as 100% inhibition of cell growth. […] This broad activity is consistent with a compound that is a mitotic inhibitor.

The next data set has as its system HCT-15. Briefly: CellTiter-Glo proliferation, 72 hours. The data set is classed as cell-based. Particulars: Homo sapiens; Colon, HCT-15, 72 hours.
Excerpt: as §1, §2

The conditions of data set [3]: for Survival (alive/total) / % Max. Δ body weight, (Day): q4d × 3. As for the experimental part:
Experiments were performed using outbred athymic nu/nu mice (Charles River Laboratories) approximately 6-8 weeks old. Upon arrival, animals received a subcutaneous microchip implant (AVID, Folsom, La.) in the subscapular region for identification of individuals. Animals were allowed to acclimatize for 1 week before any experimental procedures began.
Compound IIa, compound IIc, compound IIa (shown below), and SB-715992 were formulated in a Captisol®-based formulation. Doses were administered intravenously (i.v.) and adjusted to each animal's body weight. Formulations were made once at the beginning of study and stored at room temperature. Clinical grade paclitaxel was purchased pre-mixed in a cremophor-based vehicle (Mayne Pharma, now Hospira, Lake Forest, Ill., catalog #NDC-6170334209) and diluted in sterile saline to provide a dose volume of 16 mL/kg for a 30 mg/kg dose administered intraperitoneally (i.p.)
For the efficacy studies, mice were enrolled with a mean tumor volume of approximately 300 mm^3. Tumor xenografts were measured in two dimensions (L and W) with digital calipers twice weekly from the start of dosing on Day 0. Tumor volume was calculated as (L×W^2)/2. Body weights were measured twice weekly and clinical observations were recorded daily. Tumor volume and body weights were captured and stored by StudyDirector software (StudyLog, South San Francisco, Calif.).

The test system of a further data set is KB8.5 tumor xenograft. Briefly: KB8.5 tumor xenograft model (P-gp expressing), tumor response. Type of data set: in vivo, mouse. Particulars: for ΔT/ΔC, Day 11 (%): q4d × 3. On the procedure: Cells were cultured for fewer than 10 passages prior to use. […] All data were expressed as mean and SEM. Between-groups comparisons for final tumor measurements were performed using the one-way ANOVA pair-wise analysis. Significance was determined using Kruskal-Wallis one-way ANOVA on Ranks, followed by appropriate post-hoc test (Dunn's Method or Tukey Test) for multiple pair-wise comparisons. Statistical analysis was carried out using SigmaStat (Systat Software Inc., San Jose, Calif.).

Where two headings read alike, the source gives them in different places. Marks after values point to notes of the source that are not given here.

For orientation: AUC means the area under the concentration-time curve, a measure of exposure. Higher therefore signals high exposure. A word on the half-life: it is the time in which the quantity being followed falls by half. The low end stands for fast loss, the high end for slow loss. By clearance is commonly meant the rate of elimination divided by the concentration. For `CC(=O)N(CC[C@H](N)CF)[C@@H](c1nc(-c2cc(F)ccc2F)cn1Cc1ccccc1)C(C)(C)C` [Compound Ib], in data set [1], the AUC is 867 ng·h/mL, the half-life amounted to 1.5 h and the clearance stood at 94 mL/min/kg. The IC50 in data set [2] was 22 nM.
As a reminder, the GI50 is the concentration at which growth is held to half of that of the control. Consider `COCC(=O)N(CC[C@H](N)CF)[C@@H](c1nc(-c2cc(F)ccc2F)cn1Cc1ccccc1)C(C)(C)C` [Compound Ia], for which the results for the GI50 with KB8.5, in the data set with KB3.1 and in the data set with HCT-15 were 0.4 nM, 0.4 nM and 0.3 nM, respectively. Also, in data set [1], the AUC was 2670 ng·h/mL. For the same compound, the half-life in data set [1] amounted to 1.95 h. Moreover, in data set [1], the clearance came out at 29 mL/min/kg. In addition, the “Survival (alive/total)” value is given as 10/10 in data set [3] (Table 15 study, 1.25 mg/kg, i.v.); 10/10 in data set [3] (Table 15 study, 2.5 mg/kg, i.v.); 10/10 in data set [3] (Table 15 study, 5 mg/kg, iv.). In addition, the “% Max. Δ body weight, (Day)” value is recorded as 1 (D11) % in data set [3] (Table 15 study, 1.25 mg/kg, i.v., D11); −0.4 (D4) % in data set [3] (Table 15 study, 2.5 mg/kg, i.v., D4); −2 (D4) % in data set [3] (Table 15 study, 5 mg/kg, iv., D4). Further, in data set [2], the IC50 was 0.6 nM. The “efficacy in the KB8.5 tumor xenograft model” value in the data set with KB8.5 tumor xenograft (5 mg/kg, q4d×3) was “not efficacious”. The “ΔT/ΔC, Day 11 (%)” value with KB8.5 tumor xenograft (Table 15 study, 1.25 mg/kg, i.v., not statistically different from vehicle) is recorded as 84%; with KB8.5 tumor xenograft (Table 15 study, 2.5 mg/kg, i.v., not statistically different from vehicle) it was 61%; in the data set with KB8.5 tumor xenograft (Table 15 study, 5 mg/kg, iv., not statistically different from vehicle), 66%.
Turning to `C[C@H](O)C(=O)N(CC[C@H](N)CF)[C@@H](c1nc(-c2cc(F)ccc2F)cn1Cc1ccccc1)C(C)(C)C` [Compound IIc], in data set [1], the AUC is 1700 ng·h/mL. The compound also returned a half-life in data set [1] of 1.83 h. Further, in data set [1], the clearance came to 47 mL/min/kg. In data set [3] (2.5 mg/kg treated group), the body weight entry was “significant weight loss”. The “Survival (alive/total)” value in data set [3] (Table 14 study, 1.25 mg/kg, i.v.) is 9/9; in data set [3] (Table 14 study, 2.5 mg/kg, i.v., due to 4/9 mice having 15% weight loss or more), “All down on Day 8”. Also, the “% Max. Δ body weight, (Day)” value in data set [3] (Table 14 study, 1.25 mg/kg, i.v., D11) was −5 (D11) %; in data set [3] (Table 14 study, 2.5 mg/kg, i.v., D8), −10 (D8) %. In addition, the IC50 in data set [2] was found to be 0.9 nM. The “percent ΔT/ΔC” value in the data set with KB8.5 tumor xenograft (1.25 mg/kg, q4d×3, day 11) is 39%. Further, the “ΔT/ΔC, Day 11 (%)” value in the data set on KB8.5 tumor xenograft (Table 14 study, 1.25 mg/kg, i.v., KB8.5 xenograft, female nu/nu mice, p < 0.05 versus vehicle) is given as 39* %.

Values taken from patent US8252832B2, “Kinesin inhibitors as cancer therapeutics” (Novartis AG, priority 2007, dated 2012).
